According to patent publication US9404081B2, “Pyruvate kinase activators for use in therapy” (AGIOS PHARMACEUTICALS, INC., priority 2011, dated 2016):

What was measured:
Assay type in all cases: biochemical
PKR R532W [1] = biological target: T1, PKR R532W (Homo sapiens, UniProt P30613, R532W); assay: PKR Mutant Assay (AC50), PKR R532W
Experimental: (§1) • PKR or PKR mutant enzyme solution was diluted in assay buffer. • 2 μL of test compound was added into wells first, and then 180 μL reaction mix was added. • Reactions mixture with test compound was assembled except for ADP, and plates were stored for 60 minutes at room temperature. • 20 uL ADP was added to start reaction at room temperature and reaction progress was measured as changes in absorbance at 340 nm wavelength at room temperature.
(§2) Test Compound Preparation: • Test compound stock was made at 100× concentration in 100% DMSO (10 mM) • 1 to 3 dilutions were made for 11 points (i.e. 50 μl of first concentration added to 100 μl 100% DMSO to yield 3.33 mM, 50 μl of this added to 100 μl DMSO to yield 1.11 mM, and so forth) • 1 to 100 dilution into assay (2 μl in 200 μl) yielded starting concentration of 100 μM, decreasing 3 fold for 11 points. Assay Buffer: 100 mM KCl, 50 mM Tris 7.5, 5 mM MgCl2, 1 mM DTT, 0.03% BSA Reaction Mixture: PKR mutant enzyme: 80-400 ng/well; ADP: 0.22-1.65 mM; PEP: 0.1-0.5 mM; NADH: 180 uM; LDH: 0.5 units (Sigma#59023); DTT: 1 mM; BSA: 0.03%.

wild type PKR = wild type PKR (Homo sapiens, UniProt P30613); assay: PKR Mutant Assay (AC50), wild type PKR; settings: read-out: PKR WT AC50
Chain of wild type PKR (P30613 whole entry): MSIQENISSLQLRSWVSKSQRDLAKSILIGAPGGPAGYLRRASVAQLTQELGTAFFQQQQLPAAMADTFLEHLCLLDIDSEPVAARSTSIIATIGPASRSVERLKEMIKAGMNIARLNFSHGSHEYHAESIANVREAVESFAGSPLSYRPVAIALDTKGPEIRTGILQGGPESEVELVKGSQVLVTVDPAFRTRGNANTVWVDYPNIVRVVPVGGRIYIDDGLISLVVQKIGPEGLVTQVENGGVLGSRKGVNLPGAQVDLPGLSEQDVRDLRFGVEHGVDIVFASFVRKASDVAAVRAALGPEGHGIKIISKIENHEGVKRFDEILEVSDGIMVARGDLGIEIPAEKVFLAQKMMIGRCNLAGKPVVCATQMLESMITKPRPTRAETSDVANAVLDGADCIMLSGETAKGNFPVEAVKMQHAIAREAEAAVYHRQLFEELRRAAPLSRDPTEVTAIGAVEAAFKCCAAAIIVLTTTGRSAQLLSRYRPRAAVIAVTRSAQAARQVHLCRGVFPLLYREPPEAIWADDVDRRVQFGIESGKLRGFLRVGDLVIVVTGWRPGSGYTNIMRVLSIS
Experimental: as §1, §2

PKR R532W [2] = biological target: T1, PKR R532W; assay: PKR R532W Single Point Percent Activation Assay; settings: read-out: Act, % 532W
How it was run: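 PKR R532W (100 ng/well) preincubated 60 min at RT with compound at 1 μM in Tris pH 7.5, KCl, MgCl2, DTT, BSA. Reaction started with ADP (0.36 mM), with PEP 0.1 mM, NADH 180 μM and LDH coupling; read at OD340, room temperature.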

PKR R510Q [3] = biological target: T2, PKR R510Q (Homo sapiens, UniProt P30613, R510Q); assay: PKR Mutant Assay (AC50), PKR R510Q
T2 sequence (P30613 whole entry R510Q): as the sequence (P30613 whole entry) above, with R510Q counted along it
Experimental: as §1, §2

PKR T384W [4] = biological target: PKR T384W (Homo sapiens, UniProt P30613, T384W); assay: PKR T384W Single Point Percent Activation Assay; settings: read-out: Act. % 384W
Chain of PKR T384W (Homo sapiens, UniProt P30613, T384W) (P30613 whole entry T384W): as the sequence (P30613 whole entry) above, with T384W counted along it
How it was run: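 Soluble PKR T384W (300 ng/well) preincubated 60 min at RT with 1 μM compound in 50 mM Tris pH 7.5, 100 mM KCl, 5 mM MgCl2, 1 mM DTT, 0.03% BSA. Started with ADP (0.08 mM); PEP 0.23 mM, LDH-coupled NADH (180 μM) consumption read at OD340, room temperature.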

PKR wt = PKR wt (Homo sapiens, UniProt P30613); assay: PKR WT Single Point Percent Activation Assay
Chain of PKR wt (P30613 whole entry): as the sequence (P30613 whole entry) above
How it was run: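 Single concentration of 1 μM compound preincubated 60 min at RT with PKR wt (100 ng/well) in Tris pH 7.5, KCl, MgCl2, DTT, BSA. Reaction started with ADP (0.48 mM final) with PEP 0.15 mM, coupled LDH/NADH (180 μM), read at OD340, room temperature; given as percent activation.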

PKR R510Q [5] = biological target: T2, PKR R510Q; assay: PKR R510Q Single Point Percent Activation Assay; settings: read-out: Act. % 510Q
How it was run: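 Test compound was used at a single concentration of 1 μM and preincubated 60 min at room temperature with PKR R510Q (40 ng/well). The buffer was 50 mM Tris pH 7.5, 100 mM KCl, 5 mM MgCl2, 1 mM DTT and 0.03% BSA. The reaction was started with 0.2 mM ADP and read as OD340 in an LDH-coupled system (0.11 mM PEP, 180 μM NADH).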

PKR G364D = PKR G364D (Homo sapiens, UniProt P30613, G364D); assay: PKR Mutant Assay (AC50), PKR G364D
Chain of PKR G364D (P30613 whole entry G364D): as the sequence (P30613 whole entry) above, with G364D counted along it
Experimental: as §1, §2

PKR T384W [6] = biological target: PKR T384W (Homo sapiens, UniProt P30613); assay: PKR Mutant Assay (AC50), PKR T384W
Chain of PKR T384W (Homo sapiens, UniProt P30613) (P30613 whole entry T384M): as the sequence (P30613 whole entry) above, with T384M counted along it
Experimental: as §1, §2

PKR R479H = PKR R479H (Homo sapiens, UniProt P30613, R479H); assay: PKR Mutant Assay (AC50), PKR R479H
Chain of PKR R479H (P30613 whole entry R479H): as the sequence (P30613 whole entry) above, with R479H counted along it
Experimental: as §1, §2

T1 sequence (P30613 whole entry R532W): as the sequence (P30613 whole entry) above, with R532W counted along it

| SMILES | AC50 (PKR R532W [1]) [nM] | AC50 (wild type PKR) [nM] | activation at 1 µM (PKR R532W [2]) [%] | AC50 (PKR R510Q [3]) [nM] | activation at 1 µM (PKR T384W [4]) [%] | activation at 1 µM (PKR wt) [%] | activation at 1 µM (PKR R510Q [5]) [%] | AC50 (PKR G364D) [nM] | AC50 (PKR T384W [6]) [nM] | AC50 (PKR R479H) [nM] |
| --- | --- | --- | --- | --- | --- | --- | --- | --- | --- | --- |
| CC(C)OC(=O)N1CCN(C(=O)c2ccc(NS(=O)(=O)c3cccc4cccnc34)cc2)[C@H](C)C1 | < 100 | < 100 | 101 to 500 | > 500 | 101 to 500 | 101 to 500 | 101 to 500 | – | – | – |
| COc1ccccc1N1CCN(C(=O)c2ccc(NS(=O)(=O)c3cccc4cccnc34)cc2)C(C)C1 (stereo not shown) | < 100 | < 100 | 101 to 500 | > 500 | 101 to 500 | 101 to 500 | 101 to 500 | 101 to 500 | < 100 | < 100 |
| CC1CN(Cc2ccccc2)CC(C)N1C(=O)c1ccc(NS(=O)(=O)c2cccc3cccnc23)cc1 (stereo not shown) | – | – | 101 to 500 | < 100 | 101 to 500 | 101 to 500 | 101 to 500 | – | – | – |
| CC(C)OC(=O)N1[C@H](C)CN(C(=O)c2ccc(NS(=O)(=O)c3cccc4cccnc34)cc2)C[C@@H]1C | > 500 | < 100 | 101 to 500 | – | 101 to 500 | 101 to 500 | 101 to 500 | – | – | – |
| O=C(c1ccc(NS(=O)(=O)c2cccc3cccnc23)cc1)N1CCN(C[C@@H]2CCOC2)CC1 | < 100 | < 100 | 1 to 100 | 101 to 500 | 101 to 500 | 1 to 100 | 101 to 500 | – | < 100 | < 100 |
| CCOC(=O)N1CCN(C(=O)c2ccc(NS(=O)(=O)c3cccc4cccnc34)cc2)[C@@H](C)C1 | > 500 | > 500 | 101 to 500 | – | 101 to 500 | 101 to 500 | 1 to 100 | – | – | – |
| O=C(c1ccc(NS(=O)(=O)c2cccc3cccnc23)cc1)N1CCN(C[C@H]2CCOC2)CC1 | < 100 | < 100 | 1 to 100 | 101 to 500 | 101 to 500 | 101 to 500 | 101 to 500 | – | < 100 | < 100 |
